What all share (assay type): cell-based
Test [1] deals with cystic fibrosis-associated pathogens. The test is described as follows: antimicrobial activity (MIC) against all pathogens tested. The following applies: pathogens of Table 1. How it is done:
(§1) The antimicrobial activity of 5-fluorouracil (FU) was studied by determining minimal inhibitory concentrations (MIC) in a 96 well microtiter plate. Briefly, serial two-fold dilutions of FU were performed in TSB. A suspension of each microorganism from Table 1 was added to wells at a concentration of 5×10^5 CFU/mL, and the microtiter plates were incubated at 37° C. The MIC was defined, as the lowest concentration of an antimicrobial required for total inhibition of a test microorganism at 37° C. 5-Fluorouracil was active against all the pathogens tested (Table 1).

For test [2], the system named is Staphylococcus aureus. The test is described as follows: MIC in 96 well microtiter plate, S. aureus. The following applies: TSB, 5×10^5 CFU/mL, 37° C. How it is done:
as §1

Test [3] deals with Burkholderia cepacia. The test is described as follows: MIC in 96 well microtiter plate, B. cepacia. To be noted: TSB, 5×10^5 CFU/mL, 37° C. How it is done: as §1
In test [4] the test system is Pseudomonas aeruginosa. Description: MIC in 96 well microtiter plate, P. aeruginosa. To be noted: TSB, 5×10^5 CFU/mL, 37° C. How it is done: as §1

This is an account of results in patent US8617542B2, “DispersinB™, 5-fluorouracil, deoxyribonuclease I and proteinase K-based antibiofilm compositions and uses thereof” (Kane Biotech Inc., priority 2008, dated 2013).

Each structure is given as a SMILES string. ≈ marks a conversion by molar mass, not a printed value.

As for `O=c1[nH]cc(F)c(=O)[nH]1` [5-Fluorouracil, 5-fluoro-2,4(1H,3H)-Pyrimidinedione], the “antimicrobial activity against all the pathogens tested” value in test [1] is “active”. Moreover, the MIC (as a rule, the least concentration at which growth counts as inhibited) in test [2] was determined as 25 µg/mL (≈ 192 µM); in test [3] it was 62.5 µg/mL (≈ 480 µM); in test [4], 31.2 µg/mL (≈ 240 µM).
